According to PMC5218480 (PLoS ONE, 2017):

Tested on: MV-4-11 cells
Assay: Gene expression microarray analysis (Affymetrix PrimeView) and GSEA
Format: cell-based, human
Design: RFU PODN (11730768_x_at) / Fold change /veh PODN (11730768_x_at) / RFU LINC00158 (11744669_a_at) / Fold change /veh LINC00158 (11744669_a_at) / RFU DUSP10 (11751237_a_at) / Fold change /veh DUSP10 (11751237_a_at) / RFU ID3 (11757404_x_at) / Fold change /veh ID3 (11757404_x_at) / RFU PLEKHG5 (11737974_s_at) / Fold change /veh PLEKHG5 (11737974_s_at) / RFU LRRC4B (11730491_at) / Fold change /veh LRRC4B (11730491_at) / RFU GIMAP4 (11747438_a_at) / Fold change /veh GIMAP4 (11747438_a_at) / RFU KRT8 (11758183_x_at) / Fold change /veh KRT8 (11758183_x_at) / RFU CNN1 (11734310_a_at) / Fold change /veh CNN1 (11734310_a_at) / RFU VPS37D (11726825_at) / Fold change /veh VPS37D (11726825_at) / RFU C10orf10 (11716522_x_at) / Fold change /veh C10orf10 (11716522_x_at) / RFU KIR2DL2 /// KIR2DL4 /// KIR2DL5A /// KIR2DL5B /// KIR2DS1 /// KIR2DS2 /// KIR2DS3 /// KIR2DS4 /// KIR3DL3 /// KIR3DL3 /// KIR3DS1 (11738374_at) / Fold change /veh KIR2DL2 /// KIR2DL4 /// KIR2DL5A /// KIR2DL5B /// KIR2DS1 /// KIR2DS2 /// KIR2DS3 /// KIR2DS4 /// KIR3DL3 /// KIR3DL3 /// KIR3DS1 (11738374_at) / RFU C1QL1 (11718748_at) / Fold change /veh C1QL1 (11718748_at) / RFU TMPRSS4 (11747572_a_at) / Fold change /veh TMPRSS4 (11747572_a_at) / RFU HAMP (11756126_x_at) / Fold change /veh HAMP (11756126_x_at) / RFU RNFT2 (11725882_a_at) / Fold change /veh RNFT2 (11725882_a_at) / RFU NR4A2 (11747474_a_at) / Fold change /veh NR4A2 (11747474_a_at) / RFU ABCC12 (11746883_a_at) / Fold change /veh ABCC12 (11746883_a_at) / RFU TMEM136 (11760407_x_at) / Fold change /veh TMEM136 (11760407_x_at) / RFU CLDN22 /// WWC2 (11732394_at) / Fold change /veh CLDN22 /// WWC2 (11732394_at) / RFU HLA-DPB1 (11760878_x_at) / Fold change /veh HLA-DPB1 (11760878_x_at) / RFU SPINT1 (11716480_a_at) / Fold change /veh SPINT1 (11716480_a_at) / RFU GAP43 (11754022_s_at) / Fold change /veh GAP43 (11754022_s_at) / RFU A4GNT (11735810_at) / Fold change /veh A4GNT (11735810_at) / RFU PRB3 (11715151_x_at) / Fold change /veh PRB3 (11715151_x_at) / RFU TUBB4B (11761932_at) / Fold change /veh TUBB4B (11761932_at) / RFU CAPN14 (11732068_a_at) / Fold change /veh CAPN14 (11732068_a_at) / RFU TMCC2 (11721928_a_at) / Fold change /veh TMCC2 (11721928_a_at) / RFU IRGQ (11745062_a_at) / Fold change /veh IRGQ (11745062_a_at) / RFU FAM174B (11720279_a_at) / Fold change /veh FAM174B (11720279_a_at) / RFU TMPRSS4 (11748680_a_at) / Fold change /veh TMPRSS4 (11748680_a_at) / RFU FAM212B (11763350_a_at) / Fold change /veh FAM212B (11763350_a_at) / RFU PLEKHG5 (11743358_a_at) / Fold change /veh PLEKHG5 (11743358_a_at) / RFU ZSCAN30 (11745921_a_at) / Fold change /veh ZSCAN30 (11745921_a_at) / RFU CMKLR1 (11741424_a_at) / Fold change /veh CMKLR1 (11741424_a_at) / RFU LOC101060620 /// MAPK8IP1 (11723275_at) / Fold change /veh LOC101060620 /// MAPK8IP1 (11723275_at) / RFU SPTSSB (11747773_x_at) / Fold change /veh SPTSSB (11747773_x_at) / RFU PRSS12 (11739890_at) / Fold change /veh PRSS12 (11739890_at) / RFU BIN1 (11741810_x_at) / Fold change /veh BIN1 (11741810_x_at) / RFU WNT11 (11732464_a_at) / Fold change /veh WNT11 (11732464_a_at) / RFU C10orf10 (11716521_a_at) / Fold change /veh C10orf10 (11716521_a_at) / RFU C5orf56 (11738089_at) / Fold change /veh C5orf56 (11738089_at) / RFU CYB561 (11721691_x_at) / Fold change /veh CYB561 (11721691_x_at) / RFU ANKRD19P (11752326_a_at) / Fold change /veh ANKRD19P (11752326_a_at) / RFU OR2T12 /// OR2T33 /// OR2T8 (11738714_s_at) / Fold change /veh OR2T12 /// OR2T33 /// OR2T8 (11738714_s_at) / RFU VCAN (11748164_a_at) / Fold change /veh VCAN (11748164_a_at) / RFU JSRP1 (11732532_at) / Fold change /veh JSRP1 (11732532_at) / RFU KRTAP10-11 (11738290_x_at) / Fold change /veh KRTAP10-11 (11738290_x_at) / RFU MYO3A (11730013_a_at) / Fold change /veh MYO3A (11730013_a_at) / RFU EBF3 (11725865_a_at) / Fold change /veh EBF3 (11725865_a_at) / RFU CAMK2N1 (11719241_x_at) / Fold change /veh CAMK2N1 (11719241_x_at) / RFU C5orf56 (11738088_a_at) / Fold change /veh C5orf56 (11738088_a_at) / RFU OLFML3 (11715873_a_at) / Fold change /veh OLFML3 (11715873_a_at) / RFU LOC100653217 /// NTM (11731650_a_at) / Fold change /veh LOC100653217 /// NTM (11731650_a_at) / RFU MAPK11 (11762145_a_at) / Fold change /veh MAPK11 (11762145_a_at) / RFU FIZ1 (11724087_x_at) / Fold change /veh FIZ1 (11724087_x_at) / RFU OASL (11726364_x_at) / Fold change /veh OASL (11726364_x_at) / RFU SOX15 (11748057_x_at) / Fold change /veh SOX15 (11748057_x_at) / RFU CD79A (11719716_a_at) / Fold change /veh CD79A (11719716_a_at) / RFU HIST1H1D (11736915_at) / Fold change /veh HIST1H1D (11736915_at) / RFU CASKIN2 (11723855_a_at) / Fold change /veh CASKIN2 (11723855_a_at) / RFU LOC730098 (11760151_x_at) / Fold change /veh LOC730098 (11760151_x_at) / RFU OR4N2 (11742367_at) / Fold change /veh OR4N2 (11742367_at) / RFU PRRT2 (11749266_a_at) / Fold change /veh PRRT2 (11749266_a_at) / RFU SNX32 (11753110_a_at) / Fold change /veh SNX32 (11753110_a_at) / RFU CDHR5 (11726645_a_at) / Fold change /veh CDHR5 (11726645_a_at) / RFU RCAN1 (11760418_a_at) / Fold change /veh RCAN1 (11760418_a_at) / RFU FAM167A (11723789_a_at) / Fold change /veh FAM167A (11723789_a_at) / RFU FAM26E (11764081_at) / Fold change /veh FAM26E (11764081_at) / RFU ISYNA1 (11749810_s_at) / Fold change /veh ISYNA1 (11749810_s_at) / RFU ACY1 (11761880_at) / Fold change /veh ACY1 (11761880_at) / RFU 11764098_at / Fold change /veh 11764098_at / RFU SAMD14 (11745864_x_at) / Fold change /veh SAMD14 (11745864_x_at) / RFU NPB (11741838_a_at) / Fold change /veh NPB (11741838_a_at) / RFU TMPRSS6 (11731388_a_at) / Fold change /veh TMPRSS6 (11731388_a_at) / RFU KRTAP10-2 (11738614_at) / Fold change /veh KRTAP10-2 (11738614_at) / RFU ARHGAP8 /// PRR5-ARHGAP8 (11727945_x_at) / Fold change /veh ARHGAP8 /// PRR5-ARHGAP8 (11727945_x_at) / RFU KRTAP5-7 /// NADSYN1 (11734609_at) / Fold change /veh KRTAP5-7 /// NADSYN1 (11734609_at) / RFU RASL12 (11751679_a_at) / Fold change /veh RASL12 (11751679_a_at) / RFU CDKN2B (11736163_a_at) / Fold change /veh CDKN2B (11736163_a_at) / RFU PRF1 (11729649_at) / Fold change /veh PRF1 (11729649_at) / RFU, ZNF638 /// ZNF638-IT1 / Fold change vs veh, ZNF638 /// ZNF638-IT1 / RFU, PANK3 / Fold change vs veh, PANK3 / RFU, SH3YL1 / Fold change vs veh, SH3YL1 / RFU, ZEB2 / Fold change vs veh, ZEB2 / RFU, NRIP1 / Fold change vs veh, NRIP1 / RFU, PTTG1IP / Fold change vs veh, PTTG1IP / RFU, CAPN2 / Fold change vs veh, CAPN2 / RFU, MED14 / Fold change vs veh, MED14 / RFU, SNORA58 / Fold change vs veh, SNORA58 / RFU, C1orf63 / Fold change vs veh, C1orf63 / RFU, LRRFIP1 / Fold change vs veh, LRRFIP1 / RFU, NDUFAF7 / Fold change vs veh, NDUFAF7 / RFU, SLC12A2 / Fold change vs veh, SLC12A2 / RFU, IBTK / Fold change vs veh, IBTK / RFU, ESF1 / Fold change vs veh, ESF1 / Fold change vs veh, TMEM50B / RFU, TAOK1 / Fold change vs veh, TAOK1 / RFU, ACBD3 / Fold change vs veh, ACBD3 / RFU, TMA16 / Fold change vs veh, TMA16 / RFU, RWDD3 / Fold change vs veh, RWDD3 / RFU, BCAT1 / Fold change vs veh, BCAT1 / RFU, EDEM3 / Fold change vs veh, EDEM3 / RFU, TMEM33 / Fold change vs veh, TMEM33 / RFU, WDR75 / Fold change vs veh, WDR75 / RFU, AHCTF1 / Fold change vs veh, AHCTF1 / RFU, TFRC / Fold change vs veh, TFRC / RFU, ZDHHC17 / Fold change vs veh, ZDHHC17 / RFU, NOM1 / Fold change vs veh, NOM1 / RFU, ARL8B / Fold change vs veh, ARL8B / RFU, ZBTB11 / Fold change vs veh, ZBTB11 / RFU, TAMM41 / Fold change vs veh, TAMM41 / RFU, KIAA1704 /// LOC100996395 / Fold change vs veh, KIAA1704 /// LOC100996395 / RFU, ING1 / Fold change vs veh, ING1 / RFU, TRMT61B / Fold change vs veh, TRMT61B / RFU, FUBP3 / Fold change vs veh, FUBP3 / RFU, TP53 / Fold change vs veh, TP53 / RFU, TNKS2 / Fold change vs veh, TNKS2 / RFU, ZFP14 / Fold change vs veh, ZFP14 / RFU, ACTR2 / Fold change vs veh, ACTR2 / RFU, PPP3R1 / Fold change vs veh, PPP3R1 / RFU, PIK3R1 / Fold change vs veh, PIK3R1 / RFU, HNRNPA1 / Fold change vs veh, HNRNPA1 / RFU, RNF170 / Fold change vs veh, RNF170 / RFU, ZNF28 / Fold change vs veh, ZNF28 / RFU, RNGTT / Fold change vs veh, RNGTT / RFU, OGT / Fold change vs veh, OGT / RFU, BRD1 / Fold change vs veh, BRD1 / RFU, MARS / Fold change vs veh, MARS / RFU, ZNF655 / Fold change vs veh, ZNF655 / RFU, FAHD1 / Fold change vs veh, FAHD1 / RFU, BDP1 / Fold change vs veh, BDP1 / RFU, LRRCC1 / Fold change vs veh, LRRCC1 / RFU, ARID1A / Fold change vs veh, ARID1A / RFU, ZNF146 / Fold change vs veh, ZNF146 / RFU, ZNF330 / Fold change vs veh, ZNF330 / RFU, GPN3 / Fold change vs veh, GPN3 / RFU, C9orf123 / Fold change vs veh, C9orf123 / RFU, N4BP2L2 / Fold change vs veh, N4BP2L2 / RFU, ARFIP1 / Fold change vs veh, ARFIP1 / RFU, FAM179B / Fold change vs veh, FAM179B / RFU, BCL10 / Fold change vs veh, BCL10 / RFU, UHRF1BP1L / Fold change vs veh, UHRF1BP1L / RFU, BET1 / Fold change vs veh, BET1 / RFU, CNOT2 / Fold change vs veh, CNOT2 / RFU, ZNF268 / Fold change vs veh, ZNF268 / Fold change vs veh, ZNF507 / RFU, DGCR2 / Fold change vs veh, DGCR2 / RFU, WDSUB1 / Fold change vs veh, WDSUB1 / Fold change vs veh, HSP90B1 /// MIR3652 / RFU, ADSS / Fold change vs veh, ADSS / RFU, GK / Fold change vs veh, GK / RFU, ZNF148 / Fold change vs veh, ZNF148 / RFU, TAF9 / Fold change vs veh, TAF9 / RFU, SLC1A5 / Fold change vs veh, SLC1A5 / RFU, SLMO2 / Fold change vs veh, SLMO2 / RFU, ABCC4 / Fold change vs veh, ABCC4 / RFU, LOC101060439 /// RAP1B / Fold change vs veh, LOC101060439 /// RAP1B / RFU, RFX7 / Fold change vs veh, RFX7 / RFU, GTPBP10 / Fold change vs veh, GTPBP10 / RFU, CNEP1R1 / Fold change vs veh, CNEP1R1 / RFU, BIVM-ERCC5 /// ERCC5 / Fold change vs veh, BIVM-ERCC5 /// ERCC5 / RFU, ILF3 / Fold change vs veh, ILF3 / RFU 11762660_at / Fold change /veh 11762660_at / RFU VCAN (11757783_s_at) / Fold change /veh VCAN (11757783_s_at) / RFU DDX43 (11728927_at) / Fold change /veh DDX43 (11728927_at) / RFU KRT8 (11758188_x_at) / Fold change /veh KRT8 (11758188_x_at) / RFU NKD1 (11759106_at) / Fold change /veh NKD1 (11759106_at) / RFU SRD5A1 (11742802_a_at) / Fold change /veh SRD5A1 (11742802_a_at) / RFU TPSAB1 /// TPSB2 (11721975_s_at) / Fold change /veh TPSAB1 /// TPSB2 (11721975_s_at) / RFU GSTM3 (11746129_a_at) / Fold change /veh GSTM3 (11746129_a_at) / RFU IL23R (11737362_x_at) / Fold change /veh IL23R (11737362_x_at) / RFU TMEM51 (11727254_a_at) / Fold change /veh TMEM51 (11727254_a_at) / RFU PIWIL2 (11732686_x_at) / Fold change /veh PIWIL2 (11732686_x_at) / RFU ORM1 (11744905_x_at) / Fold change /veh ORM1 (11744905_x_at) / RFU CCDC152 (11743942_at) / Fold change /veh CCDC152 (11743942_at) / RFU ECM1 (11717891_a_at) / Fold change /veh ECM1 (11717891_a_at) / RFU IL23R (11748794_a_at) / Fold change /veh IL23R (11748794_a_at) / RFU TNFAIP8L3 (11732012_x_at) / Fold change /veh TNFAIP8L3 (11732012_x_at) / RFU MBOAT4 (11741988_at) / Fold change /veh MBOAT4 (11741988_at) / RFU 11764193_at / Fold change /veh 11764193_at / RFU TMEM53 (11763286_at) / Fold change /veh TMEM53 (11763286_at) / RFU MAGEB2 (11727129_at) / Fold change /veh MAGEB2 (11727129_at) / RFU TMEM200A (11744735_a_at) / Fold change /veh TMEM200A (11744735_a_at) / RFU CCDC152 (11751479_a_at) / Fold change /veh CCDC152 (11751479_a_at) / RFU FAM211A (11726209_a_at) / Fold change /veh FAM211A (11726209_a_at) / RFU RGS16 (11746705_a_at) / Fold change /veh RGS16 (11746705_a_at) / RFU VCAN (11755009_s_at) / Fold change /veh VCAN (11755009_s_at) / RFU RHOB (11743442_s_at) / Fold change /veh RHOB (11743442_s_at) / RFU RGS16 (11720943_a_at) / Fold change /veh RGS16 (11720943_a_at) / RFU RGS16 (11720944_at) / Fold change /veh RGS16 (11720944_at) / RFU, VPS4B / Fold change vs veh, VPS4B / RFU, CREB1 / Fold change vs veh, CREB1 / RFU, DNAJC13 / Fold change vs veh, DNAJC13 / RFU, GNAQ / Fold change vs veh, GNAQ / RFU, CDK5R1 / Fold change vs veh, CDK5R1 / RFU, ZRANB3 / Fold change vs veh, ZRANB3 / RFU, CUL4A / Fold change vs veh, CUL4A / RFU, CCNY / Fold change vs veh, CCNY / RFU, UFL1 / Fold change vs veh, UFL1 / RFU, COG3 / Fold change vs veh, COG3 / RFU, DIAPH2 / Fold change vs veh, DIAPH2 / RFU, SKA2 / Fold change vs veh, SKA2 / RFU, AFF3 / Fold change vs veh, AFF3 / RFU, LMF1 / Fold change vs veh, LMF1 / RFU, IPO11 / Fold change vs veh, IPO11 / RFU, DFFB / Fold change vs veh, DFFB / RFU, FOXP1 / Fold change vs veh, FOXP1 / RFU, CARD8 / Fold change vs veh, CARD8 / RFU, STRN3 / Fold change vs veh, STRN3 / RFU, ADK / Fold change vs veh, ADK / RFU, RASSF2 / Fold change vs veh, RASSF2 / RFU, WIPF1 / Fold change vs veh, WIPF1 / RFU, LARP1B / Fold change vs veh, LARP1B / RFU, RASA1 / Fold change vs veh, RASA1 / RFU, RB1 / Fold change vs veh, RB1 / RFU, PPFIA1 / Fold change vs veh, PPFIA1 / RFU, MAT2A / Fold change vs veh, MAT2A / RFU, CCT5 / Fold change vs veh, CCT5 / RFU, WDR92 / Fold change vs veh, WDR92 / RFU, CUX1 / Fold change vs veh, CUX1 / RFU, TTC7A / Fold change vs veh, TTC7A / RFU, TMEM135 / Fold change vs veh, TMEM135 / RFU, DEPTOR / Fold change vs veh, DEPTOR / RFU, CPM / Fold change vs veh, CPM / RFU, DNAJB6 / Fold change vs veh, DNAJB6 / RFU, CACNA2D3 / Fold change vs veh, CACNA2D3 / RFU, DTX4 / Fold change vs veh, DTX4 / RFU, TFCP2 / Fold change vs veh, TFCP2 / RFU, GMCL1 /// GMCL1P1 / Fold change vs veh, GMCL1 /// GMCL1P1 / RFU, AEBP2 / Fold change vs veh, AEBP2 / RFU, SNHG1 /// SNORD22 /// SNORD25 /// SNORD26 /// SNORD27 /// SNORD28 /// SNORD29 /// SNORD31 / Fold change vs veh, SNHG1 /// SNORD22 /// SNORD25 /// SNORD26 /// SNORD27 /// SNORD28 /// SNORD29 /// SNORD31 / Fold change (Aza/veh), C12orf56 (ProbeSet 11735607_a_at) / Fold change (ACY-1035/veh), C12orf56 (ProbeSet 11735607_a_at) / Fold change (Aza/veh), FGFR1OP (ProbeSet 11751329_s_at) / Fold change (ACY-1035/veh), FGFR1OP (ProbeSet 11751329_s_at) / Fold change (Aza/veh), VPS36 (ProbeSet 11739960_a_at) / Fold change (ACY-1035/veh), VPS36 (ProbeSet 11739960_a_at) / RFU SYPL1 (11715823_x_at) / Fold change /veh SYPL1 (11715823_x_at) / RFU IGFBP7 (11715501_s_at) / Fold change /veh IGFBP7 (11715501_s_at) / RFU REEP3 (11722064_at) / Fold change /veh REEP3 (11722064_at) / RFU IGLL1 (11728026_x_at) / Fold change /veh IGLL1 (11728026_x_at): dose or concentration left out as unconfirmed
Conditions: MV-4-11 cells, 48 hours

Nc1ccc(-c2cccs2)cc1NC(=O)c1ccc2c(c1)cc(C1CC1)n2CCN1CCOCC1 [ACY-1035]
Fold change /veh ISYNA1 (11749810_s_at): 0.96
